From patent US20110262561A1, “Protoilludance Norsesquiterpenoid Esters and Uses Thereof” (NATIONAL RESEARCH INSTITUTE OF CHINESE MEDICINE, priority 2010, published 2011)
Where two headings read alike, the source gives them in different places.

How the values were obtained:
HT-29 = experiment: Alamar blue cytotoxicity assay on HT-29 cancer cells; format: cell-based; details: Homo sapiens, HT-29; alamar blue, 48 hours treatment
Protocol: (§1) The endothelial cells (human endothelial-like cells, Eahy926) and 4 cancer cell lines (MCF-7, H460, HT-29, and CEM) were derived from the American Type Culture Collection (ATCC) and were maintained in DMEM or RPMI medium (Life Technologies) supplemented with 2 mM L-glutamine and 10% heat-inactivated fetal bovine serum (FBS) (Life Technologies) under standard culture conditions. The cell viability and cell number were determined by the Trypan Blue dye-exclusion method.
(§2) The alamar blue (AB) assay (dye purchased from Biosource International, Nivelles, Belgium) was used to estimate cell viability in accordance with procedures previously described by Fatokun et al (Bone (2006) 39, 542-551). Briefly, cells were treated with various concentration of each of the test compounds (e.g., compounds of example 1.1) at 37° C. for 48 hours, and the medium in each well was then aspirated at the end of the treatment, 100 μL of fresh medium containing 10% v/v AB was then added to the control and the treated wells, respectively. Plates were then incubated at 37° C. for 6 hour prior to measuring the absorbance at 570 nm and at 600 nm wavelengths using a spectrophotometric plate reader (DYNEX Technologies, USA). Experimental data were normalized to control values. CH-205-A, K, L, O, and -P were effective on MCF-7 cells; CH-205-A, H, K, L, O, and -P were effective on H460 cells; CH-205-A and -P were effective on HT-29 cells and CH-205-A, H, N, and -O were effective on CEM cells.

MCF-7 = experiment: Alamar blue cytotoxicity assay on MCF-7 cancer cells; format: cell-based; details: for IC50: Homo sapiens, MCF7, alamar blue, 48 hours treatment
Protocol: as §1, §2

[1] = system: endothelial cells (human endothelial-like cells, Eahy926); experiment: MTT cell viability of endothelial cells (ECs); format: cell-based
Protocol: as §1
(§3) Anti-angiogenic effects of CH-205 compounds were estimated by their inhibition on the growth of endothelial cells. The toxicity of CH-205 compounds to endothelial cells was estimated using MTT (3-(4,5-dimethy;thiazol-2-yl)-2,5-diphenyltetrazolium bromide, a tetrazole) assay. MTT assay is a standard colorimetric assay (an assay which measures changes in color) for measuring the activity of enzymes that reduce yellow MTT to formazan, giving a purple color. It is also used to determine cytotoxity of potential medicinal agents and other toxic materials, since those agents would result in cell toxicity and therefore metabolic dysfunction and therefore decreased performance in the assay. The cytotoxity concentrations of the CH-205 compounds measured in MTT test are all over 20 μM (Table 2), however, their effects on angiogenesis inhibition are in nM range, indicating the safety of these compounds (Table 3).

[2] = MTT cell viability of endothelial cells (ECs); format: cell-based, human; details: human, Eahy926 endothelial-like cells, column head prints none, read-out: Cell viability IC50 (cytotoxicity concentration on ECs)
Protocol: as §1, §3

H460 = experiment: Alamar blue cytotoxicity assay on H460 cancer cells; format: cell-based, human; details: for IC50: Homo sapiens, NCI-H460, alamar blue, 48 hours treatment
Protocol: as §1, §2

endothelial cells (ECs) = experiment: In vitro antiangiogenesis on ECs (inhibition of endothelial cell growth); format: cell-based; details: Homo sapiens, ECs, read-out: In vitro antiangiogenesis IC50
Protocol: as §1, §3

CEM = experiment: Alamar blue cytotoxicity assay on CEM cancer cells; format: cell-based; details: for IC50: Homo sapiens, CCRF-CEM, alamar blue, 48 hours treatment
Protocol: as §1, §2

[3] = system: H460 human lung cancer tumor xenograft; details: for tumor volume after sacrifice / Tumor growth inhibition ratio (TGI): CH-205-O study, 10 times; for tumor volume after sacrifice: solvent control 3.984±0.484
Protocol: The established, transplantable, 5×10^6/200 μL H460 tumor cells were prepared in RPMI medium. The 200 μL of cell suspension was injected subcutaneously into right flank area of each mouse. The mice were randomized into vehicle control and drug treatment groups of four-six animals each when xenografts were palpable with a tumor size of 40 mm^3. Adminitration of the lead compounds or vehicle began on day 15 when the median tumor size was ranged from 75 to 80 mm^3. Tumor-bearing animals were randomized (five per group) prior to treatment. The candidate test drugs were intraperitoneal (IP) administered into with optimal dosage once every other day (48 hr apart) for 7 or 10 times. […] Solvent vehicle and cisplatin (5 mg/kg) were used to administrate, respectively, as io negative and positive controls. Two days after last administration of tested compounds, the animals were sacrificed. The tumor dimensions were measured every other day using a linear caliper and tumor volume is calculated using the equation V (mm^3)=a×b^2/2, where a is the largest diameter and b is the smallest diameter. Body weights are also recorded once weekly. Tumor is growth inhibition ratio (TGI) is calculated using the equation TGI=(1−(the mean treated tumor mass/mean control tumor mass))*100%.

| Structure (SMILES) | IC50 (HT-29) [µM] | IC50 (MCF-7) [µM] | Cell viability (% of control) 1 μM [1] | Cell viability (% of control) 10 μM [1] | Cell viability (% of control) 50 μM [1] | Cell viability (% of control) 100 μM [1] | Cell viability (% of control) 250 μM [1] | Cell viability (% of control) 500 μM [1] | IC50 [2] [µM] | IC50 (H460) [µM] | IC50 (endothelial cells (ECs)) [µM] | IC50 (CEM) [µM] | other results |
| --- | --- | --- | --- | --- | --- | --- | --- | --- | --- | --- | --- | --- | --- |
| Cc1c(Cl)c(O)cc(O)c1C(=O)OCC1=C[C@@H]2CC(C)(C)C[C@@H]2[C@@]2(C)C[C@@H](O)[C@@]12O [CH-205-H, (((2R,2aS,4aS,7aS,7bR)-2,2a,4a,5,6,7,7a,7b-octahydro-2,2a-dihydroxy-6,6,7 b-trimethyl-1H-cyclobuta[e]inden-3-yl)methyl 3-chloro-4,6-dihydroxy-2-methylbenzoate)] | 7.1 | 56.5 | 99.7 % of control | 128.7 % of control | 34.9 % of control | 12.7 % of control | 8.4 % of control | 7.0 % of control | 29.3 | 5.5 | 0.0013 | 5.4 | melting point: 148 to 149 °C |
| COc1cc(O)c(C(=O)O[C@@H]2C[C@]3(C)C4CC(C)(C)CC4C=C(C=O)[C@]23O)c(C)c1Cl (stereo partly drawn) [CH-205-O, (2R,2aS,7bR)-3-formyl-2,2a,4a,5,6,7,7a,7b-octahydro-2a-hydroxy-6,6,7b-trimethyl-1 H-cyclobuta[e]inden-2-yl 3-chloro-6-hydroxy-4-methoxy-2-methylbenzoate] | 42.1 | 1.7 | 98.5 % of control | 43.6 % of control | 7.0 % of control | 6.5 % of control | 7.1 % of control | 7.0 % of control | 13.2 | 4.5 | 0.0021 | 5.1 | effective on MCF-7 cells (MCF-7): effective; effective on H460 cells (H460): effective; tumor volume after sacrifice ([3]; 4 mg/kg IP every other day): 1.475±0.155 cm^3; Tumor growth inhibition ratio (TGI) ([3]; 4 mg/kg IP): 60.87%; tumor volume after sacrifice ([3]; 40 mg/kg IP every other day): 1.470±0.177 cm^3; Tumor growth inhibition ratio (TGI) ([3]; 40 mg/kg IP): 70.7%; tumor volume after sacrifice ([3]; 80 mg/kg IP every other day): 1.645±0.206 cm^3; Tumor growth inhibition ratio (TGI) ([3]; 80 mg/kg IP): 62.9%; tumor regression ([3]; CH-205-O study, 4, 40 and 80 mg/kg each other day, after 10 injections): highly significant tumor regression; effect on body weight ([3]; mouse, in vivo): no different effect on body weight; effective on CEM cells (CEM): effective |
